According to patent US10450314B2, “Pteridine derivatives as modulators of ROR gamma” (Boehringer Ingelheim International GmbH, priority 2015, dated 2019):

Columns and labels:
[1] = biological target: T1, RORγ (Homo sapiens, UniProt P51449); experiment: RORγ Reporter Gene Assay (RGA), luciferase transactivation in transiently transfected HEK 293 cells; format: cell-based; conditions: HEK 293 cells cotransfected with pGL4.3 luc2P/GAL4UAS and pBIND Gal4DBD hRORC LBD; 20-24 h incubation
T1 construct: expressed in transfected cells; host or cells: HEK 293 cells, transiently cotransfected with pGL4.3 luc2P/GAL4UAS/Hygro reporter
T1 sequence (P51449 269-508 limits assumed): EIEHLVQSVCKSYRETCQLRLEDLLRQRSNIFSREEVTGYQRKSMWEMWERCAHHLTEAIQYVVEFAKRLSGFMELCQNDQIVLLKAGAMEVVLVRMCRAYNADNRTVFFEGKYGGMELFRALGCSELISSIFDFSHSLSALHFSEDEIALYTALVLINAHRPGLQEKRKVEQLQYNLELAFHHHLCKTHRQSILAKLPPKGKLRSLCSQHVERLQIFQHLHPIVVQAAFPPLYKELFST
Procedure: Reporter Gene Assay (RGA)
A nuclear receptor transactivation assay is performed to quantitate the ability of test compounds to inhibit RORγ transactivation of a luciferase reporter. A similar assay is described in: Khan et al., Bioorganic & Medicinal Chemistry Letters 23 (2013), 532-536. The system uses transiently transfected HEK 293 cells cotransfected with two plasmids (pGL4.3, luc2P/GAL4UAS/Hygro, and pBIND, Gal4DBD hRORC LBD1-3). The positive control is co-transiently transfected with both plasmids, and the negative control contains the pGL4.3 promoter sequence. Assays are assembled in 384 well plates where transiently transfected cells and test compound at varying concentrations are incubated for 20-24 h. The next day, assays plates are taken out and equilibrated at RT for 20-30 minutes. Bright-Glo™ Luciferase Assay System is used to detect Luciferase production. After addition of Bright GLO detection reagent, the plates are incubated at RT for 20 minutes. The plates are read on an Envision plate reader to measure luminescence signal. The RLU signal is converted to POC relative to control and blank wells.
Compound Dilution Buffer:
Bright Glo Luciferase Assay System: Promega #E2620
Thaw lysis buffer provided in kit, add 100 mL lysis buffer to substrate powder.

[2] = Human liver microsome (HLM) metabolic stability assay; format: in vitro ADME; conditions: human liver microsomes, 1 uM compound, 37° C., 60 min; % hepatic blood flow
Procedure: Assessment of Metabolic Stability
The 5 time point, high-throughput human liver microsome (HLM) metabolic stability assay is designed to determine in vitro compound metabolism. Compounds are incubated with HLMs at a concentration of 1 uM, at 37° C., for a total of 60 min. The percent of compound remaining at 5, 15, 30, and 60 min is used to calculate the t1/2 (min), CLint (mL/min/kg), CLh (mL/min/kg), and % Qh. The assay is based on a 96-well format and can accommodate up to 92 compounds per plate (n=1).
Using the 96-well multi-channel head, the Biomek FX, equipped with a Peltier heating block/shaker, is programmed to accomplish the following steps: • 1. Pipette 175 uL of 1.15 mg/mL microsomes into each of the 96 conical inserts (Analytical Sales and Products, catalog number 96PL05) that fit into the plate of the Peltier heating block/shaker (the incubation plate) • 2. Add 5 uL of compounds from the assay plate to the microsomes and shake the mixture at 600 rpm at 42.1° C. for 10 min (a setting of 42.1° C. on the Peltier is required for the samples to incubate at 37° C.) • 3. After 10 min, prompt the user to add the NADPH plate to the deck and add 20 uL from the NADPH plate to the incubation plate to start the reaction • 4. Add 215 uL of 100%, cold acetonitrile containing an internal standard(s) to a 0 minute, 5 minute, 15 minute, 30 minute, and 60 minute “quench” plate • 5. At 0 min, 5 min, 15 min, 30 min, and 60 min into the incubation, aspirate 12 uL from the incubation mixture and add it to the quench solution to stop the reaction • 6. Add 185 uL HPLC grade water to each well of the 0, 5, 15, 30 and 60 minute quench plates to dilute compounds to the appropriate concentration for the mass spectrometer
After all time points are collected, the quench plates are sealed with 96-well pierceable plate mats or heat sealing foil and centrifuged at 3000 rpm for 15 min to pellet the microsomes.
The plates are analyzed using LC/MS/MS with electron spray ionization (ESI) and the previously determined MRM transitions. The LC method includes the following parameters:
Using an Excel template in Activitybase, the peak areas corresponding to 5, 15, 30 and 60 min are compared to the peak area at 0 min to calculate the percent of remaining compound using the following equation:
Percent compound remaining=(AUC at Time t min/AUC at Time 0 min)×100 where t=0, 5, 15, 30 or 60 min.
Time (min) is plotted against the natural logarithm (Ln) of the percent compound remaining to determine the slope. The slope is used to calculate t1/2 (min) using the equation, t1/2=0.693/slope.
Clint, Intrinsic Clearance

SMILES | IC50 [1] [nM] | HLM (% Qh) [2] [% Qh]
CC[C@@H](C)n1c(=O)c(NCc2ccc(S(=O)(=O)CC)cn2)nc2c(C)nc(-c3c(OC)ncnc3C3CC3)nc21 [Example 86] | 73 | <24
CCS(=O)(=O)c1ccc(CNc2nc3c(C)nc(-c4c(C)ncnc4C4CC4)nc3n([C@@H](C)C3CC3)c2=O)cn1 [Example 74] | 77 | <24
CC[C@H](C)n1c(=O)c(NCc2ccc(S(N)(=O)=O)cn2)nc2c(C)nc(-c3c(OC)ncnc3C3CC3)nc21 [Example 81] | 185 | <24
CC[C@@H](C)n1c(=O)c(NCc2ccc(S(=O)(=O)CC)cn2)nc2c(OC)nc(-c3c(C)ncnc3C3CC3)nc21 [Example 21] | 1900 | <24
COc1ncnc(C2CC2)c1-c1nc(C)c2nc(NCc3ccc(S(C)(=N)=O)cc3)c(=O)n([C@@H](C)C(F)(F)F)c2n1 (single isomer, unassigned) [Example 99b] | 260 | 41
Cc1ncnc(C2CC2)c1-c1nc(C)c2nc(NCc3ccc(S(C)(=O)=O)cn3)c(=O)n([C@@H](C)C(F)(F)F)c2n1 [Example 18] | 175 | 55
CCS(=O)(=O)c1ccc(CNc2nc3c(C)nc(-c4c(C)ncnc4C4CC4)nc3n([C@@H](C)C(F)(F)F)c2=O)nc1 [Example 79] | 130 | <24
CC[C@@H](C)n1c(=O)c(NCC2CCN(S(=O)(=O)CC)CC2)nc2c(C)nc(-c3c(C)ncnc3C3CC3)nc21 [Example 24] | 120 | 69
Cc1ncnc(C2CC2)c1-c1nc(C)c2nc(NCc3ccc(S(C)(=O)=O)cn3)c(=O)n([C@@H](C)CF)c2n1 [Example 49] | 4200 | <24
CCS(=N)(=O)c1ccc(CNc2nc3c(C)nc(-c4c(C)ncnc4C4CC4)nc3n([C@@H](C)C3CC3)c2=O)nc1 (single isomer, unassigned) [Example 42a] | 270 | <24
COc1ncnc(C2CC2)c1-c1nc(C)c2nc(NCc3ccc(S(C)(=O)=O)cn3)c(=O)n([C@@H](C)C3CC3)c2n1 [Example 5] | 73 | 28
CC[C@H](C)n1c(=O)c(NCc2ccc(S(C)(=O)=O)cn2)nc2c(C)nc(-c3c(C)ncnc3C3CC3)nc21 [Example 14] | 115 | <24
CC[C@@H](C)n1c(=O)c(NCc2ccc(S(C)(=O)=O)nc2)nc2c(C)nc(-c3c(C)ncnc3C3CC3)nc21 [Example 72] | 205 | <24
CC[C@H](C)n1c(=O)c(NCc2ccc(S(C)(=O)=O)nc2)nc2c(C)nc(-c3c(OC)ncnc3C3CC3)nc21 [Example 11] | 135 | 26
CC[C@@H](C)n1c(=O)c(NCc2ccc(S(=O)(=O)CC)cn2)nc2c(CF)nc(-c3c(C)ncnc3C3CC3)nc21 [Example 53] | 160 | 33
Cc1ncnc(C2CC2)c1-c1nc(C)c2nc(NCc3ccc(S(C)(=N)=O)cc3)c(=O)n([C@@H](C)C3CC3)c2n1 (single isomer, unassigned) [Example 27b] | 265 | <24
CC[C@@H](C)n1c(=O)c(NCc2ccc(S(N)(=O)=O)cn2)nc2c(C)nc(-c3c(C)ncnc3C3CC3)nc21 [Example 76] | 275 | 34
CCS(=O)(=O)c1cnc(CNc2nc3c(C)nc(-c4c(OC)ncnc4C4CC4)nc3n([C@@H](C)C(F)(F)F)c2=O)nc1 [Example 22] | 140 | <24
CCS(=O)(=O)c1ccc(CNc2nc3c(C)nc(-c4c(OC)ncnc4C4CC4)nc3n([C@@H](C)C3CC3)c2=O)nc1 [Example 71] | 65 | 35
CC[C@H](C)n1c(=O)c(NCc2ncc(S(=O)(=O)CC)cn2)nc2c(C)nc(-c3c(C)ncnc3C3CC3)nc21 [Example 16] | 113 | <24
CC[C@@H](C)n1c(=O)c(NCc2ccc(S(=N)(=O)CC)cc2)nc2c(C)nc(-c3c(C)ncnc3C3CC3)nc21 (single isomer, unassigned) [Example 26a] | 109 | 25
CC[C@@H](C)n1c(=O)c(NCc2ccc(S(=N)(=O)CC)cc2)nc2c(C)nc(-c3c(OC)ncnc3C3CC3)nc21 (single isomer, unassigned) [Example 29a] | 235 | 73
Cc1ncnc(C2CC2)c1-c1nc(C)c2nc(NCc3ccc(S(C)(=N)=O)cn3)c(=O)n([C@@H](C)C(F)(F)F)c2n1 (single isomer, unassigned) [Example 106a] | 1300 | <24
COc1ncnc(C2CC2)c1-c1nc(C)c2nc(NCc3ccc(S(C)(=N)=O)cc3)c(=O)n([C@@H](C)C3CC3)c2n1 (stereo partly drawn) [Example 67] | 110 | <24
Cc1ncnc(C2CC2)c1-c1nc(C)c2nc(NCc3ccc(S(N)(=O)=O)cn3)c(=O)n([C@@H](C)C3CC3)c2n1 [Example 61] | 185 | <24
CC[C@H](C)n1c(=O)c(NCc2ncc(S(=O)(=O)CC)cn2)nc2c(C)nc(-c3c(OC)ncnc3C3CC3)nc21 [Example 15] | 150 | <24
COc1ncnc(C2CC2)c1-c1nc(C)c2nc(NCc3ccc(S(C)(=N)=O)cn3)c(=O)n([C@@H](C)C(F)(F)F)c2n1 (single isomer, unassigned) [Example 105b] | 510 | 27
CC[C@@H](C)n1c(=O)c(NCc2ccc(S(C)(=O)=O)cn2)nc2c(C)nc(-c3c(OC)ncnc3C3CC3)nc21 [Example 2] | 110 | <24
Cc1ncnc(C2CC2)c1-c1nc(C)c2nc(NCc3ccc(S(C)(=O)=O)cn3)c(=O)n(C(C)C(F)F)c2n1 (stereo not drawn) [Example 90] | 235 | <24
CCS(=N)(=O)c1ccc(CNc2nc3c(C)nc(-c4c(C)ncnc4C4CC4)nc3n([C@@H](C)C(F)(F)F)c2=O)cc1 (single isomer, unassigned) [Example 34b] | 170 | <24
